Where a name gives a salt, the structure may show the parent alone. Read-outs that look alike come from different tables or passages of the source.
Columns and labels:
patient [1] = settings: for headache side-effect of PDE-5 inhibitor: Example 4: patient, erectile dysfunction secondary to medications, hemicrania continua; for headache side-effect of Viagra: Viagra alone
Method: A patient with a history of migraines had difficulty sustaining an erection for long periods of time.
A patient presented with erectile dysfunction secondary to medications and hemicrania continua (a largely refractory condition consisting of a constant one-sided headache). […] They were then prescribed cafergot, a combination of ergotamine and caffeine, at a dose of 1 mg and instructed to take this with the Clalis.
A patient experienced intermittent erectile dysfunction due to stress.

patient [2] = experiment: Patient case reports: alleviation of PDE-5 inhibitor headache by a co-administered agent; type: in vivo
[3] = Example 3: patient with history of migraines

## CN1CC(=O)N2[C@H](c3ccc4c(c3)OCO4)c3[nH]c4ccccc4c3C[C@@H]2C1=O [Clalis, tadalafil]
Patient [1]
  headache side-effect of PDE-5 inhibitor: exacerbated their headaches

## CC(C)Cc1ccc(C(C)C(=O)O)cc1 (centres unmarked) [Ibuprofen]
Patient [2]; [3]
  effect on Viagra headache: had no effect on the headache

## CNS(=O)(=O)Cc1ccc2[nH]cc(CCN(C)C)c2c1 [Imitrex, sumatriptan succinate]
Patient [2]; Example 5: Imitrex nasal spray at a dose of 25 mg
  relief of Viagra headache: alleviated the headache to the point where they could enjoy the sex

## N[C@@H](Cc1c[nH]c2ccccc12)C(=O)O [L-tryptophan]
Patient [2]; Example 6: L-tryptophan supplements the night before sexual intercourse
  prevention of Viagra headache: headache-free sex

## CN[C@@H](C)[C@@H](O)c1ccccc1 [Sudafed, pseudoephedrine hydrochloride]
Patient [2]; Example 1: one Sudafed tablet
  relief of Viagra headache: only minimal relief
Patient [2]; Example 1: two Sudafed tablets concomitantly with the Viagra
  relief of Viagra headache: headache was still present but had abated enough to where they could enjoy the experience
Patient [2]; Example 2: one Sudafed tablet with the Viagra
  prevention of Viagra headache: did not develop a headache
Patient [2]; Example 5: patient
  relief of Viagra headache: did not relieve the headache

## CCCc1nn(C)c2c(=O)[nH]c(-c3cc(S(=O)(=O)N4CCN(C)CC4)ccc3OCC)nc12 [Viagra, sildenafil citrate]
Patient [1]; Example 1: patient, erectile dysfunction secondary to low testosterone
  headache side-effect of Viagra: inability to use Viagra because of headaches
Patient [1]; Example 2: patient without erectile dysfunction
  headache side-effect of Viagra: bothered by headaches
Patient [1]; [3]
  headache side-effect of Viagra: intolerable headaches
Patient [1]
  headache side-effect of PDE-5 inhibitor: exacerbated their headaches
Patient [1]; Example 5: patient, intermittent erectile dysfunction due to stress
  headache side-effect of Viagra: could not tolerate the headache
Patient [1]; Example 6: patient with psychologic erectile dysfunction
  headache side-effect of Viagra: experiencing headaches
Patient [1]; Example 7: patient
  headache side-effect of Viagra: suffered from headaches

## CC(=O)Nc1ccc(O)cc1 [acetaminophen]
Patient [2]; [3]
  effect on Viagra headache: had no effect on the headache

## CC(C)(C)NCC(O)c1ccc(O)c(CO)c1 (centres unmarked) [albuterol]
Patient [2]; Example 7: two puffs of albuterol inhaler after developing a headache from the Viagra
  relief of Viagra headache: headache was alleviated

## Cn1c(=O)c2c(ncn2C)n(C)c1=O [caffeine]
Patient [2]; Example 1: caffeine administered prior to taking the Viagra
  relief of Viagra headache: did not help
Patient [2]; Example 5: patient
  relief of Viagra headache: did not relieve the headache

## CN(C)CCc1c[nH]c2ccc(Cn3cncn3)cc12 [rizatriptan]
Patient [2]; Example 3: 5 mg tablet of rizatriptan with the Viagra
  effect on Viagra headache: made the headache tolerable

Reference: patent US20100104624A1, “COMBINATION THERAPY USING PHOSPHODIESTERASE INHIBITORS” (priority 2008, published 2010)
